Reference: publication PMC3706879, “The neurotrophic compound J147 reverses cognitive impairment in aged Alzheimer's disease mice” (Alzheimer's Research & Therapy, 2013)
pEC50: −log10 of the molar value. Entries after “also recorded” stand apart in the source; their conditions may differ.

What was measured:
mice [1] = assay: acute toxicity in mice (Absorption Systems); type: in vivo; details: 2 g/kg, oral, maximum testable dose
BDNF = test system: BDNF; set-up: method as in PMID 22194796; details: normal rats; cited from earlier work
huAPP/PS1 mice = assay: fear conditioning assay in aged huAPP/PS1 mice; type: in vivo; details: 200 ppm in food for three months
Procedure: The APPswe/PS1ΔE9 transgenic mice have been previously characterized. The line 85 mice carry two transgenes, the mouse/human chimeric APP/Swe, linked to Swedish FAD and human PS1ΔE9. At 20 months of age both male and female transgenic mice were fed a high fat diet (Harlan Tekland, Madison, WI, USA) with and without J147 (200 ppm, 10 mg/kg/day). Treatment continued for three months and was followed by behavior testing and sacrifice of mice for tissue harvesting. […] (Data not shown).
Fear conditioning to either a cue or a context represents a form of associative learning. The read-out that is measured in contextual and cued fear conditioning is a freezing response that occurs following the pairing of an unconditioned stimulus (US), such as a foot shock, with a conditioned stimulus (CS), such as a particular context or cue (tone). The mouse will freeze if it remembers and associates that environment with the aversive stimulus. […] On Day 2, the time spent freezing is measured over the entire time in the chamber. […] The percentage of time spent freezing by each mouse is averaged per group and then groups can be compared and P-values calculated to determine statistical significance. On Day 3, the percentage of time spent freezing during the two tones is averaged per group, and then groups can be compared and P-values calculated to determine statistical significance. […]

C57BL/6J mice [2] = assay: fear conditioning, scopolamine induced memory impairment; type: in vivo; details: scopolamine 1 mg/kg i.p.; J147 200 ppm, donepezil 20 ppm in food; vs scopolamine
Procedure: (§1) A total of 60 male mice aged eight weeks were housed 4 per cage and were divided into five groups with 12 mice per group. Treatments were administered in the food (TestDiet® 5015, Richmond, IN, USA) for a period of two weeks before commencement of behavioral testing. […] Following two weeks of treatment, memory impairment was induced by intraperitoneal (i.p.) injection of scopolamine (1 mg/kg) 30 minutes prior to each of the following behavioral tests: Y-maze, probe trial of the water maze and contextual and cued fear conditioning. Mice were allowed to rest for two days between each behavior test. All mice received scopolamine except for one of the control groups, which received saline as a control. Mice were sacrificed 24 hours after the last behavioral test for tissue harvesting.
Fear conditioning to either a cue or a context represents a form of associative learning. The read-out that is measured in contextual and cued fear conditioning is a freezing response that occurs following the pairing of an unconditioned stimulus (US), such as a foot shock, with a conditioned stimulus (CS), such as a particular context or cue (tone). The mouse will freeze if it remembers and associates that environment with the aversive stimulus. The hippocampus and the amygdala are required for fear memory where the hippocampus is involved in the formation and retrieval of context fear associations and the amygdala is involved in conditioning and recall of associations to contextual and discrete cues. This assay used fear conditioning chambers from Med Associates Inc. with Video Freeze Software (Med Associates Inc, St. Albans, VT, USA). On Day 1, mice were trained by allowing them to explore the chamber for 120 sec, mice were then presented with a 30-sec tone (2 kHz with 85 dB intensity) immediately followed by a 2-sec foot shock (0.7 mA). The tone-shock pairing was repeated following a 30-sec interval and the mice were again allowed to explore for 120 sec before removing them from the chamber. On Day 2, contextual memory, which requires a functioning hippocampus, was tested by placing the mice in the chambers and allowing them to explore for the same length of time as the previous day but without the tone and the shock. On Day 3, cued or emotional memory was tested, which relies on both hippocampus and amygdala. […] On Day 2, the time spent freezing is measured over the entire time in the chamber. […] The percentage of time spent freezing by each mouse is averaged per group and then groups can be compared and P-values calculated to determine statistical significance. On Day 3, the percentage of time spent freezing during the two tones is averaged per group, and then groups can be compared and P-values calculated to determine statistical significance. […]

mice [3] = details: mouse, in vivo
neuroprotection assays = test system: neuroprotection assays; set-up: method as in PMID 22194796; details: cited from earlier work
C57BL/6J mice [4] = assay: Y-maze, scopolamine induced memory impairment; type: in vivo; details: scopolamine 1 mg/kg i.p.; J147 200 ppm, donepezil 20 ppm in food for two weeks
Procedure: as §1
Spontaneous alternation, the tendency to alternate free choices in a Y-maze (three arms), is a model for studying short term working memory in mice. Mice were injected with 1 mg/kg of scopolamine or saline 30 minutes prior to testing. Then each mouse was placed in the center of the Y and arm entries were recorded by video camera and the order of entries were recorded for the first 15 entries. Spontaneous alternations are defined as consecutive triplets of different arm choices.

CYP450 3A4 = CYP450 3A4 (Homo sapiens, UniProt P08684)
dopamine transporter = dopamine transporter (Homo sapiens, UniProt Q01959); assay: dopamine transporter assay (MDS Pharma Services); type: binding
Procedure: (§2) All screening was done at 10 μM J147 by various contract research organizations (CROs), including MDS Pharma Services (King of Prussia, PA, USA), Ricerca, now Panlabs (Concord, OH, USA), Ambit (La Jolla, CA, USA), Caliper (Hopkinton, MA, USA) and NovaScreen Biosciences (Hanover, MD, USA) by standard protocols described in their catalogs.

[5] = target: T1, monoamine oxidase B (MAO B) (Homo sapiens, UniProt P27338); assay: monoamine oxidase B assay (MDS Pharma Services); type: biochemical
T1 sequence (P27338 1-520): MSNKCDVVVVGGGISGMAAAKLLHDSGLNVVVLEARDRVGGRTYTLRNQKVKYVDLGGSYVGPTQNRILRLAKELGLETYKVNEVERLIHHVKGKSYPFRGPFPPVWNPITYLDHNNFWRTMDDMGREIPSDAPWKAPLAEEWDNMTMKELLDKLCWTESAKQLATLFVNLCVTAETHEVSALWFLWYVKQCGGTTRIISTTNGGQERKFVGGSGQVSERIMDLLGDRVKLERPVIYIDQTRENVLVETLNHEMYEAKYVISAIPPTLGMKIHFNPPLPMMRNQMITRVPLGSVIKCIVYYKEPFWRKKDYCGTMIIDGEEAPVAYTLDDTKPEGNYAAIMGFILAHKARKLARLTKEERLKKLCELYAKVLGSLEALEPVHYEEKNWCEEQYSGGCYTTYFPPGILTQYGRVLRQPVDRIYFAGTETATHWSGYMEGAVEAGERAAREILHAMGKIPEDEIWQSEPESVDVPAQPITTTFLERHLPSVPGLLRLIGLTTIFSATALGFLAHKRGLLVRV
Procedure: as §2

[6] = dose response, re-assay after screening

Sequence of dopamine transporter (Q01959 whole entry): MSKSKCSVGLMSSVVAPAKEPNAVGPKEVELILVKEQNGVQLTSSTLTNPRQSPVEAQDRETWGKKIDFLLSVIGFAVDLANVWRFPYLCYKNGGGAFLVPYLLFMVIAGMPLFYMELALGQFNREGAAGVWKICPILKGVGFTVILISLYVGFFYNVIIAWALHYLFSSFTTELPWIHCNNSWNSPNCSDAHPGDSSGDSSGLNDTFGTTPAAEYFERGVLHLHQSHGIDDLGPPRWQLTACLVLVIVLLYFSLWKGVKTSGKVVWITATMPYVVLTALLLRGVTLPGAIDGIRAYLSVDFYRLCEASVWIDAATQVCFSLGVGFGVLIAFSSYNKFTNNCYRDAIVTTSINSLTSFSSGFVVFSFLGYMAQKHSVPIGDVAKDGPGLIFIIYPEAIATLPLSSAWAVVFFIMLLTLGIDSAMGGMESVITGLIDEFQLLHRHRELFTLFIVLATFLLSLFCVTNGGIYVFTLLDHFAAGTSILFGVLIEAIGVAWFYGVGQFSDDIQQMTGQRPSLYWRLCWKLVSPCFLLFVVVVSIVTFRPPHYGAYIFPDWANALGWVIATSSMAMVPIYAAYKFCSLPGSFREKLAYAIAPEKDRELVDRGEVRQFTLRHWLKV
Sequence of CYP450 3A4 (P08684 whole entry): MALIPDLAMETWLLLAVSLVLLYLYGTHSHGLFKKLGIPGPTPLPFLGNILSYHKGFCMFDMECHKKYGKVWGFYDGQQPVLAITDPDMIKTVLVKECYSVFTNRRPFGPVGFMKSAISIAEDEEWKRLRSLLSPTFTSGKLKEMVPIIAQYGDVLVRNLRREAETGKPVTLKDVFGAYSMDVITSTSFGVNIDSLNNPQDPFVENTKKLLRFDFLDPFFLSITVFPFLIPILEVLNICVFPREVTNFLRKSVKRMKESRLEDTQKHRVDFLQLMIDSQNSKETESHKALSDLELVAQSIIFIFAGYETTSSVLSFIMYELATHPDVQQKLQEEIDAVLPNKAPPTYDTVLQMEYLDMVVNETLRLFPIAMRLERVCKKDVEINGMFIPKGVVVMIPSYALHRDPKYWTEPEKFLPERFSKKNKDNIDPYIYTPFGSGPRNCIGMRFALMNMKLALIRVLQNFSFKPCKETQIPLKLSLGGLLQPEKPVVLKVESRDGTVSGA

SMILES: COc1cccc(/C=N/N(C(=O)C(F)(F)F)c2ccc(C)cc2C)c1 [J147, (E)-N-(2,4-dimethylphenyl)-2,2,2-trifluoro-N'-(3methoxybenzyli-dene) acetohydrazide]
- penetration in the Caco-2 assay (Caco-2): moderate and symmetrical penetration
- acute toxicity (mice [1]): no oral toxicity; also recorded: negative results
- levels of BDNF in the hippocampus (BDNF): increases the levels of BDNF
- contextual fear conditioning, freezing Day 2 (huAPP/PS1 mice): rescued
- cued fear conditioning, freezing Day 3 (huAPP/PS1 mice): no significant difference between the groups
- contextual memory (freezing Day 2) (C57BL/6J mice [2]): it was not significant
- cued memory (freezing in response to the tone, Day 3) (C57BL/6J mice [2]): neither effect was significant
- addiction (mice [3]): no addiction
- pEC50 (neuroprotection assays): > 7.00
- short-term working memory (spontaneous alternations, Y maze) (C57BL/6J mice [4]): improve short-term working memory
- CYP450 3A4 assays (CYP450 inhibition) (CYP450 3A4): negative
- inhibition, dopamine transporter (dopamine transporter; 10 μM J147): greater than 60%
- pEC50 (dopamine transporter; [6]): 6.19
- inhibition, monoamine oxidase B ([5]; 10 μM J147): greater than 60%
- pEC50 [5, 6]: 5.73
